Molecular target: T1, TRPC4 (Homo sapiens, UniProt Q9UBN4)
T1 construct: host or cells: Flp-In T-REx-293 (called HEK293T with Dox-inducible TRPC4)
T1 sequence (Q9UBN4 1-977): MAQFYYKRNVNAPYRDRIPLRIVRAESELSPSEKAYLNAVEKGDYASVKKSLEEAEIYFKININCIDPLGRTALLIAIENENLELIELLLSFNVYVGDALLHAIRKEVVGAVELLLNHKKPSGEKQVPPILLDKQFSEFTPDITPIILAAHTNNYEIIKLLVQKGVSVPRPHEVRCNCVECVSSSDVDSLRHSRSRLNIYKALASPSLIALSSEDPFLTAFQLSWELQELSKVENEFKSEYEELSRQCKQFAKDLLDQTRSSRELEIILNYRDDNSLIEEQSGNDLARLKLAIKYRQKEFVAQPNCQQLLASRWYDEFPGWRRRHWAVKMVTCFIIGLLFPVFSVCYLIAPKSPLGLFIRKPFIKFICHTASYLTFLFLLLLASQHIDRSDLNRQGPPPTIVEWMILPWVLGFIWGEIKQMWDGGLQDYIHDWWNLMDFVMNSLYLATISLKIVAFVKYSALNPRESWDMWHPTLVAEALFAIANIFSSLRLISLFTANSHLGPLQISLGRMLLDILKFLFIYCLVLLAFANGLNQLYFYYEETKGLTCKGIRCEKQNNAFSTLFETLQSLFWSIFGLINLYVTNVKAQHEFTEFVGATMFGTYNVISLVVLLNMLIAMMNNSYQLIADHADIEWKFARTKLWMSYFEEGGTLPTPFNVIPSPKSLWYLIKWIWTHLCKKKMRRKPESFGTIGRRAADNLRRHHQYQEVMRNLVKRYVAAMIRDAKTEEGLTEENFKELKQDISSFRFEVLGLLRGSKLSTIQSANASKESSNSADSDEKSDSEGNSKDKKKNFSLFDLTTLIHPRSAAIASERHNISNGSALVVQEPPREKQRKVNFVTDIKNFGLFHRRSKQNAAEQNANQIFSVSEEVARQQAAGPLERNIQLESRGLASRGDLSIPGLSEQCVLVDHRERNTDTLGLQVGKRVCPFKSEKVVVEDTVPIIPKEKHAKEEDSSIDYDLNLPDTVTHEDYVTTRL
Experiment: Electrophysiology (QPatch-HT automated patch clamp, voltage ramp)
Type: cell-based
Settings: TRPC4 expressing HEK293T cells
Description: TRPC4 currents were recorded from HEK293T cells with Dox-inducible TRPC4 on the QPatch-HT automated patch clamp system at room temperature (21–24°C) (Biolin Scientific, Stockholm, Sweden). The internal solution contained (in mM): 150 Cs-aspartate, 2 MgCl2, 0.36 CaCl2, 1 EGTA, 4 MgATP, 0.3 NaGTP and 10 HEPES, pH = 7.20 with CsOH (calculated free [Ca^2+] = 100 nM using WebMaxChelator http://www.stanford.edu/~cpatton/maxc.html, assuming an ionic strength of 0.16). The standard external solution contained (in mM): 150 NaCl, 4 KCl, 2 CaCl2, 1 MgCl2, 10 HEPES and 10 D-glucose (pH = 7.40) with NaOH. Currents were elicited by a voltage ramp protocol consisting of a 50 ms step to −100 mV, followed by a 200 ms ramp to +100 mV and 10 ms at +100 mV. Voltage ramps were applied every 10 s from a holding potential of 0 mV. Results were expressed as means ± S.E.M.

Question: How did the induced current turn out when `CC(C)[C@@]12C[C@@H](O)[C@@](C)(O1)[C@@H]1CC[C@@H](C)[C@H]1[C@@H]2OC(=O)/C=C/c1ccccc1` [Englerin B] was run?
Answer: did not induce current

From PMC4476799, “Englerin A Agonizes the TRPC4/C5 Cation Channels to Inhibit Tumor Cell Line Proliferation” (PLoS ONE, 2015)
